Assay results published in patent publication US4049809A, “Solution of a oxazepine for oral or parenteral administration” (priority 1976, dated 1977).
Converted amounts (≈) assume the structure as drawn. Like-named read-outs stand apart in the source and are kept apart here.

Key:
[1] = assay type: physicochemical; conditions: 10 mg/ml, pH 6.0, 15 months
Description: (§1) The favorable stability of the oral and parenteral solutions of this invention have been established in numerous tests. The criterion of stability being the lack of precipitation of the hydroylsis product 2-chloro-dibenz[b,f][1,4]oxazepin-11(1OH)-one. […]

[2] = Second stability study, parenteral solution 15 mg/ml; assay type: physicochemical; conditions: 70% propylene glycol, pH 6.0
Description: as §1

[3] = Third stability study, parenteral solution 20 mg/ml; assay type: physicochemical; conditions: 20 mg/ml parenteral solution
Description: The favorable stability of the oral and parenteral solutions of this invention have been established in numerous tests. The criterion of stability being the lack of precipitation of the hydroylsis product 2-chloro-dibenz[b,f][1,4]oxazepin-11(1OH)-one. […] Three such studies follow:
In the third test a parenteral solution of the active ingredient at a concentration of 20 mg/ml was prepared as described in the second stability study.

[4] = Solubility and stability in water and near neutral/basic liquids; assay type: physicochemical
[5] = Crystallization/solubility behaviour with and without Polysorbate 80; assay type: physicochemical
[6] = Toxicity of hydrolysis product (statement)
[7] = Stability of solutions: lack of precipitation of the hydrolysis product; assay type: physicochemical; conditions: in the new solutions; below this concentration
Description: as §1

CN1CCN(C2=Nc3ccccc3Oc3ccc(Cl)cc32)CC1 [2-chloro-11-(4-methyl-1-piperazinyl)-dibenz[b,f][1,4]oxazepine]
Hydrolysis Product ([1]; 50% propylene glycol): 120 µg/mL
Hydrolysis Product ([1]; 60% propylene glycol): 110 µg/mL
Hydrolysis Product ([1]; 70% propylene glycol): 100 µg/mL
Hydrolysis Product ([2]; 42° C, 1 Month): 124 µg/mL
Potency ([2]; 42° C, 1 Month): 16.0 mg/mL (≈ 48.8 mM)
Hydrolysis Product ([2]; 42° C, 2 Months): 192 µg/mL
Potency ([2]; 42° C, 2 Months): 14.5 mg/mL (≈ 44.2 mM)
Hydrolysis Product ([2]; 42° C, 4 Months): 340 µg/mL
Potency ([2]; 42° C, 4 Months): 15.5 mg/mL (≈ 47.3 mM)
Hydrolysis Product ([2]; 56° C, 1 Month): 320 µg/mL
Potency ([2]; 56° C, 1 Month): 16.0 mg/mL (≈ 48.8 mM)
Hydrolysis Product ([2]; 56° C, 2 Months): 580 µg/mL
Potency ([2]; 56° C, 2 Months): 14.5 mg/mL (≈ 44.2 mM)
Hydrolysis Product ([2]; 56° C, 2 Weeks): 163 µg/mL
Potency ([2]; 56° C, 2 Weeks): 15.3 mg/mL (≈ 46.7 mM)
Hydrolysis Product ([2]; 70° C, 1 Week): 370 µg/mL
Physical Appearance ([2]; 70° C, 1 Week): Precipitate
Potency ([2]; 70° C, 1 Week): 15.0 mg/mL (≈ 45.8 mM)
Hydrolysis Product ([2]; 70° C, 2 Weeks): 467 µg/mL
Potency ([2]; 70° C, 2 Weeks): 14.8 mg/mL (≈ 45.1 mM)
Hydrolysis Product ([2]; Fresh): 26 µg/mL
Physical Appearance ([2]; Fresh): Clear
Potency ([2]; Fresh): 16.0 mg/mL (≈ 48.8 mM)
Hydrolysis Product ([2]; Room Temp., 2 Months): 55 µg/mL
Potency ([2]; Room Temp., 2 Months): 15.4 mg/mL (≈ 47 mM)
Hydrolysis Product ([2]; Room Temp., 4 Months): 67 µg/mL
Potency ([2]; Room Temp., 4 Months): 15.6 mg/mL (≈ 47.6 mM)
Hydrolysis Product ([2]; Room Temp., 6 Months): 94 µg/mL
Potency ([2]; Room Temp., 6 Months): 15.6 mg/mL (≈ 47.6 mM)
Hydrolysis Product ([2]; Room Temp., 11 Months): 142 µg/mL
Potency ([2]; Room Temp., 11 Months): 15.4 mg/mL (≈ 47 mM)
Hydrolysis Product ([2]; Room Temp., 13 Months): 144 µg/mL
Potency ([2]; Room Temp., 13 Months): 15.1 mg/mL (≈ 46.1 mM)
Hydrolysis Product ([2]; Room Temp., 18 Months): 260 µg/mL
Potency ([2]; Room Temp., 18 Months): 14.3 mg/mL (≈ 43.6 mM)
Hydrolysis Product ([3]; 42° C, 1 Month): 146 µg/mL
Potency ([3]; 42° C, 1 Month): 21.8 mg/mL (≈ 66.5 mM)
Hydrolysis Product ([3]; 42° C, 2 Months): 232 µg/mL
Potency ([3]; 42° C, 2 Months): 20.5 mg/mL (≈ 62.5 mM)
Hydrolysis Product ([3]; 42° C, 4 Months): 436 µg/mL
Potency ([3]; 42° C, 4 Months): 20.2 mg/mL (≈ 61.6 mM)
Hydrolysis Product ([3]; 56° C, 1 Month): 374 µg/mL
Potency ([3]; 56° C, 1 Month): 20.6 mg/mL (≈ 62.8 mM)
Hydrolysis Product ([3]; 56° C, 2 Months): 732 µg/mL
Potency ([3]; 56° C, 2 Months): 19.4 mg/mL (≈ 59.2 mM)
Hydrolysis Product ([3]; 56° C, 2 Weeks): 185 µg/mL
Potency ([3]; 56° C, 2 Weeks): 21.0 mg/mL (≈ 64.1 mM)
Hydrolysis Product ([3]; 70° C, 1 Week): 480 µg/mL
Physical Appearance ([3]; 70° C, 1 Week): Precipitate
Potency ([3]; 70° C, 1 Week): 20.7 mg/mL (≈ 63.1 mM)
Hydrolysis Product ([3]; 70° C, 2 Weeks): 623 µg/mL
Potency ([3]; 70° C, 2 Weeks): 20.6 mg/mL (≈ 62.8 mM)
Hydrolysis Product ([3]; Fresh): 33.0 µg/mL
Physical Appearance ([3]; Fresh): Clear
Potency ([3]; Fresh): 21.6 mg/mL (≈ 65.9 mM)
Hydrolysis Product ([3]; Room Temp., 2 Months): 62.7 µg/mL
Potency ([3]; Room Temp., 2 Months): 21.1 mg/mL (≈ 64.4 mM)
Hydrolysis Product ([3]; Room Temp., 4 Months): 78 µg/mL
Potency ([3]; Room Temp., 4 Months): 22.3 mg/mL (≈ 68 mM)
Hydrolysis Product ([3]; Room Temp., 6 Months): 116 µg/mL
Potency ([3]; Room Temp., 6 Months): 20.8 mg/mL (≈ 63.5 mM)
Hydrolysis Product ([3]; Room Temp., 11 Months): 160 µg/mL
Potency ([3]; Room Temp., 11 Months): 20.7 mg/mL (≈ 63.1 mM)
Hydrolysis Product ([3]; Room Temp., 13 Months): 184 µg/mL
Potency ([3]; Room Temp., 13 Months): 20.6 mg/mL (≈ 62.8 mM)
Hydrolysis Product ([3]; Room Temp., 18 Months): 340 µg/mL
Potency ([3]; Room Temp., 18 Months): 20.5 mg/mL (≈ 62.5 mM)
Solubility in liquids having a basic or near neutral pH ([4]; basic or near neutral pH): low solubility
Solubility in water [4]: low solubility
Effect of Polysorbate 80 on solubility level in 70% aqueous propylene glycol ([5]; 70% aqueous propylene glycol with Polysorbate 80): raises the solubility level
Effect of Polysorbate 80 on crystallization during intramuscular administration ([5]; 70% aqueous propylene glycol with Polysorbate 80 (about 2% to about 10%)): eliminates the crystallization
Crystallization when parenterally administered to body fluids ([5]; body fluids, pH about 7.0): exhibits a tendency to crystallize
Crystallization from neutral or basic media ([5]; neutral or basic media): crystallizes from neutral or basic media
Precipitation on dilution with non-acidic foods or beverages ([5]; oral concentrate without polysorbate 80): precipitates on dilution

O=C1Nc2ccccc2Oc2ccc(Cl)cc21 [2-chloro-dibenz[b,f][1,4]oxazepin-11(10H)-one]
Solubility in water [4]: extremely insoluable
Toxicity [6]: nontoxic
Concentration at which crystallization of hydrolysis product does not occur [7]: below 500 mcg/ml
